Measured values: PubChem BioAssay AID2060504 (Molecular Pharmacology Branch, DTP, NCI, 2025)

Tested on: 636577-100-R-J1-PDC complex spheroid viability
Experiment: Anticancer human tumor 636577-100-R-J1-PDC patient-derived endometrial adenocarcinoma cell line growth inhibition [GQUAD]
Conditions: for IC50: curve of first compound; for viability, T/C: stronger effect = lower value
Text: DNA G-quadruplex Stabilizer Agents in Combinations in Complex Spheroids
A high-throughput screen of multi-cell type tumor spheroids was designed to identify active combinations of DNA G-quadruplex stabilizer agents and targeted small molecules. Complex spheroids include a stromal component modeled by human endothelial cells (HUVEC) and fibroblasts modeled by human mesenchymal stem cells (MSCs). The concentration ranges selected for each drug and investigational agent were based upon clinically achievable concentrations if the clinical Cmax of the agent was known.
Compounds. The drugs and investigational agents: pidnarulex (CX-5461; NSC782164), APTO-253 (NSC789042), BRACO-19 (NSC847499), peposertib (NSC802822), ceralasertib (NSC780249), elimusertib (NSC800525), camonsertib (NSC841442), AZD-1390 (NSC803789), olaparib (NSC753686), talazoparib (NSC767125), ART-558 (NSC835418), sotorasib (NSC818433), MRTX-1133 (NSC836407), SN-38 (NSC673596), topotecan (NSC609699), etoposide (NSC141540), doxorubicin (NSC123127), gemcitabine (NSC613327), 5-fluorouracil (NSC19893), paclitaxel (NSC125973), vemurafenib (NSC761431), panobinostat (NSC761190), R-306465 (JNJ-16241199; NSC773264), adavosertib (NSC754352), TP-3654 (NSC805149), carboplatin (NSC241240), KSQ-4279 (NSC840948), and staurosporine (NSC755774) were obtained from the National Cancer Institute (NCI) Developmental Therapeutics Program Chemical Repository (34). The FDA-approved anticancer drug set is available from the NCI Developmental Therapeutics Program. […] The stock solutions were prepared in dimethyl sulfoxide (DMSO, Sigma-Aldrich, St. Louis, MO, cat. D2650) at 800-fold the tested concentration and stored at -70 degrees C prior to their use. All drugs and investigational agents were tested over a range starting from a high concentration at or near the clinical Cmax and decreasing in half-log increments. If the clinical Cmax for an agent had not been determined, the highest concentration tested was 10 microM.
2.3 Cell Culture. All cells were maintained in an incubator at 37 degrees C and 5% CO2 with 95% humidity. The PDC lines were cultured according to standard operating procedures established by the NCI PDMR. All PDCs were thawed and cultured in Matrigel-coated flasks prepared with a working solution of 1X Ham's F-12 nutrient mix, without supplementation (Invitrogen, cat. 11765054), 100 U/mL penicillin-streptomycin (Invitrogen, cat. 15140122), and 2.5% Matrigel (Corning Inc., cat. 354248) for the first three passages. The 857933-349-R-J2-PDC line was cultured in 6C/Colon 1B media, which includes advanced DMEM/F-12 (Thermo Fisher Scientific, cat. 12634028), 10 mM HEPES (Thermo Fisher Scientific, cat. 15630080), 1X GlutaMAX supplement (Thermo Fisher Scientific, cat. 35050061), 0.1 mg/mL primocin (InvivoGen, cat. ant-pm-2), 10% defined fetal bovine serum, heat inactivated (HyClone Laboratories Inc., cat. SH30070.03HI), 50% L-WRN conditioned media (ATCC, cat. CRL-3276), 1.25 mM N-Acetyl-L-cysteine (Sigma-Aldrich, cat. A9165), 10 mM nicotinamide (Sigma-Aldrich, cat. N0636), 1X B-27 supplement (Thermo Fisher Scientific, cat. 17504044), 1X N-2 supplement (Thermo Fisher Scientific, cat. 17502048), 10 microM Y-27632 dihydrochloride (Tocris Bioscience, cat. 1254), and 50 ng/mL human EGF recombinant protein (Thermo Fisher Scientific, cat. PHG0311). The 485176-168-R4-J1-PDC line was cultured in Panc media, which includes all 6C/Colon 1B media components plus 100 ng/mL human FGF-10 (Thermo Fisher Scientific, cat. 100-26), 500 nM SB-431542 (Selleckchem, cat. S1067), and gastrin (Tocris, cat. 3006).
[…]

[1] = second compound 0.0316 µM, first compound 0.0316 µM
[2] = second compound 0.0316 µM, first compound 0.316 µM
[3] = second compound 0.1 µM, first compound 0.0316 µM
[4] = second compound 0.1 µM, first compound 0.316 µM
[5] = second compound 0.316 µM, first compound 0.0316 µM
[6] = second compound 0.316 µM, first compound 0.316 µM
[7] = second compound 1 µM, first compound 0.0316 µM
[8] = second compound 1 µM, first compound 0.316 µM
[9] = second compound 3.16 µM, first compound 0.0316 µM
[10] = second compound 3.16 µM, first compound 0.316 µM
[11] = second compound 10 µM, first compound 0.0316 µM
[12] = second compound 10 µM, first compound 0.316 µM
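Further: viability read after seven days of drug exposure.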
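Wherever viability, T/C is given: luminescence signal used as a proxy for viable cells; 100% = DMSO vehicle control wells.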

With `CCCS(=O)(=O)Nc1ccc(F)c(C(=O)c2c[nH]c3ncc(-c4ccc(Cl)cc4)cc23)c1F` + CN(C)c1ccc(Nc2c3ccc(NC(=O)CCN4CCCC4)cc3nc3cc(NC(=O)CCN4CCCC4)ccc23)cc1 the IC50 (second compound 0.0316 µM) was 6700 nM, the IC50 (second compound 0.1 µM) was 6470 nM and the IC50 (second compound 0.316 µM) was 6630 nM. For the same molecule, the IC50 (second compound 1 µM) was 6620 nM, the IC50 (second compound 3.16 µM) was less than 31.6 nM and the IC50 (second compound 10 µM) was less than 31.6 nM. For the same molecule, the viability, T/C [1] was 101%, the viability, T/C (second compound 0.0316 µM, first compound 0.1 µM) was 98.1% and the viability, T/C [2] was 118%. The viability, T/C (second compound 0.0316 µM, first compound 1 µM) was 59.4%, the viability, T/C (second compound 0.0316 µM, first compound 3.16 µM) was 87.2% and the viability, T/C (second compound 0.0316 µM, first compound 10 µM) was 35.4%. The viability, T/C [3] was 96.4%, the viability, T/C (second compound 0.1 µM, first compound 0.1 µM) was 79.3% and the viability, T/C [4] was 89.1%. It also gave a viability, T/C (second compound 0.1 µM, first compound 1 µM) of 73.1%, a viability, T/C (second compound 0.1 µM, first compound 3.16 µM) of 80.4% and a viability, T/C (second compound 0.1 µM, first compound 10 µM) of 32.8%. It also gave a viability, T/C [5] of 82.4%, a viability, T/C (second compound 0.316 µM, first compound 0.1 µM) of 83% and a viability, T/C [6] of 80.2%. For the same molecule, the viability, T/C (second compound 0.316 µM, first compound 1 µM) was 69.2%, the viability, T/C (second compound 0.316 µM, first compound 3.16 µM) was 74.9% and the viability, T/C (second compound 0.316 µM, first compound 10 µM) was 37.6%. It also gave a viability, T/C [7] of 79.3%, a viability, T/C (second compound 1 µM, first compound 0.1 µM) of 69.8% and a viability, T/C [8] of 78.9%. It also gave a viability, T/C (second compound 1 µM, first compound 1 µM) of 89.8%, a viability, T/C (second compound 1 µM, first compound 3.16 µM) of 77.7% and a viability, T/C (second compound 1 µM, first compound 10 µM) of 34.5%. It also gave a viability, T/C [9] of 35.7%, a viability, T/C (second compound 3.16 µM, first compound 0.1 µM) of 47.9% and a viability, T/C [10] of 47.1%. The viability, T/C (second compound 3.16 µM, first compound 1 µM) was 43%, the viability, T/C (second compound 3.16 µM, first compound 3.16 µM) was 40.6% and the viability, T/C (second compound 3.16 µM, first compound 10 µM) was 18.5%. It also gave a viability, T/C [11] of 5.58%, a viability, T/C (second compound 10 µM, first compound 0.1 µM) of 6.42% and a viability, T/C [12] of 6.13%. It also gave a viability, T/C (second compound 10 µM, first compound 1 µM) of 6.09%, a viability, T/C (second compound 10 µM, first compound 3.16 µM) of 4.83% and a viability, T/C (second compound 10 µM, first compound 10 µM) of 1.82%.

Molecule `Cc1[nH]c2ccccc2c1CCNCc1ccc(/C=C/C(=O)NO)cc1` + CN(C)c1ccc(Nc2c3ccc(NC(=O)CCN4CCCC4)cc3nc3cc(NC(=O)CCN4CCCC4)ccc23)cc1 has an IC50 (second compound 0.0316 µM) of 3.84 nM, an IC50 (second compound 0.1 µM) of 4.62 nM and an IC50 (second compound 0.316 µM) of 4.84 nM. It also gave an IC50 (second compound 1 µM) of 3.15 nM, an IC50 (second compound 3.16 µM) of less than 0.999 nM and an IC50 (second compound 10 µM) of less than 0.999 nM. It also gave a viability, T/C (second compound 0.0316 µM, first compound 0.000999 µM) of 84%, a viability, T/C (second compound 0.0316 µM, first compound 0.00316 µM) of 49.5% and a viability, T/C (second compound 0.0316 µM, first compound 0.00999 µM) of 40.6%. The viability, T/C [1] was 15.7%, the viability, T/C (second compound 0.0316 µM, first compound 0.0999 µM) was 8.74% and the viability, T/C [2] was 12.3%. The viability, T/C (second compound 0.1 µM, first compound 0.000999 µM) was 80.7%, the viability, T/C (second compound 0.1 µM, first compound 0.00316 µM) was 56.5% and the viability, T/C (second compound 0.1 µM, first compound 0.00999 µM) was 36.1%. The viability, T/C [3] was 14.2%, the viability, T/C (second compound 0.1 µM, first compound 0.0999 µM) was 8.43% and the viability, T/C [4] was 8.87%. It also gave a viability, T/C (second compound 0.316 µM, first compound 0.000999 µM) of 62.3%, a viability, T/C (second compound 0.316 µM, first compound 0.00316 µM) of 62.5% and a viability, T/C (second compound 0.316 µM, first compound 0.00999 µM) of 30.4%. The viability, T/C [5] was 14%, the viability, T/C (second compound 0.316 µM, first compound 0.0999 µM) was 8.97% and the viability, T/C [6] was 9.2%. The viability, T/C (second compound 1 µM, first compound 0.000999 µM) was 65.4%, the viability, T/C (second compound 1 µM, first compound 0.00316 µM) was 48.6% and the viability, T/C (second compound 1 µM, first compound 0.00999 µM) was 31.5%. It also gave a viability, T/C [7] of 13.9%, a viability, T/C (second compound 1 µM, first compound 0.0999 µM) of 9.95% and a viability, T/C [8] of 10.1%. It also gave a viability, T/C (second compound 3.16 µM, first compound 0.000999 µM) of 37.1%, a viability, T/C (second compound 3.16 µM, first compound 0.00316 µM) of 29.2% and a viability, T/C (second compound 3.16 µM, first compound 0.00999 µM) of 20.2%. For the same molecule, the viability, T/C [9] was 15.6%, the viability, T/C (second compound 3.16 µM, first compound 0.0999 µM) was 10.3% and the viability, T/C [10] was 10.9%. For the same molecule, the viability, T/C (second compound 10 µM, first compound 0.000999 µM) was 6.06%, the viability, T/C (second compound 10 µM, first compound 0.00316 µM) was 7.54% and the viability, T/C (second compound 10 µM, first compound 0.00999 µM) was 7.16%. It also gave a viability, T/C [11] of 6.21%, a viability, T/C (second compound 10 µM, first compound 0.0999 µM) of 6.38% and a viability, T/C [12] of 3.97%.
